According to patent US20200199102A1, “COMPOUNDS THAT PARTICIPATE IN COOPERATIVE BINDING AND USES THEREOF” (Revolution Medicines, Inc., priority 2017, published 2020):
Where a SMILES comes first, the peptide text is derived from it. [ ]: non-standard residue; d: D form. MeBmt = C/C=C/C[C@@H](C)[C@@H](O)[C@H](NC)C(=O)O; NMeY = CN[C@@H](Cc1ccc(O)cc1)C(=O)O; NMeF = CN[C@@H](Cc1ccccc1)C(=O)O; NMeI = CC[C@H](C)[C@H](NC)C(=O)O; NMeT = CN[C@H](C(=O)O)[C@@H](C)O; NMeL = CN[C@@H](CC(C)C)C(=O)O; NMeNle = CCCC[C@H](NC)C(=O)O; Tle = CC(C)(C)[C@H](N)C(=O)O; NMeV = CN[C@H](C(=O)O)C(C)C; NMeA = CN[C@@H](C)C(=O)O; Abu = CC[C@H](N)C(=O)O; Sar = CNCC(=O)O

Target: T1, Cyclophilin A (Homo sapiens, UniProt P62937)
T1 construct: made in house
Test: AlphaLISA inhibition of binding of biotinylated Cyclosporin A to FLAG tagged Cyclophilin A
Settings: for % signal: AlphaLISA signal; for % signal / % inhibition of CsA binding to Cyclophilin A: test concentration not given; for IC50: read-out: IC50 value of CsA binding to Cyclophilin A
How it was run: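 Inhibition of biotin-CsA binding to FLAG-tagged Cyclophilin A read by AlphaLISA (ex 680, em 615 nm). Working stocks were 6 nM biotinylated CsA and 25 nM FLAG-CypA; beads and compound were combined first for 30 min, then protein added for 60 min, all at room temperature in the dark, with DMSO and cyclosporin A controls.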

T1 sequence (P62937 whole entry, species assumed): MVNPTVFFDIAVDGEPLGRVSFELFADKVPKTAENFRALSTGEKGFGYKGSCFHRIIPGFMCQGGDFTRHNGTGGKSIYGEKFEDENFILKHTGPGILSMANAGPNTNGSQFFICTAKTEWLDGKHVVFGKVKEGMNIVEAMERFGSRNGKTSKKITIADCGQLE

In the case of `C/C=C/C[C@@H](C)[C@@H](O)[C@H]1C(=O)N[C@@H](CC)C(=O)N(C)CC(=O)N(C)[C@@H]([C@@H](C)O)C(=O)N[C@@H](C(C)(C)C)C(=O)N(C)[C@@H](C)C(=O)N[C@@H](CC(C)C)C(=O)N[C@H](C)C(=O)N(C)[C@@H](CC(C)C)C(=O)N(C)[C@@H](CC(C)C)C(=O)N(C)[C@@H](C(C)C)C(=O)N1C` [Compound C75] (cyclo([MeBmt][Abu][Sar][NMeT][Tle][NMeA]L[dA][NMeL][NMeL][NMeV])), the “% signal” value is reported as 3.88% and the IC50 is reported as < 2000 nM.

`C/C=C/C[C@@H](C)[C@@H](O)[C@H]1C(=O)N[C@@H](CC)C(=O)N(C)CC(=O)N(C)[C@@H](C)C(=O)N[C@@H](CC(C)C)C(=O)N(C)[C@@H](CC(C)C)C(=O)N[C@@H](CC(C)C)C(=O)N[C@H](C)C(=O)N(C)[C@@H](CC(C)C)C(=O)N(C)[C@@H](CC(C)C)C(=O)N(C)[C@@H](C(C)C)C(=O)N1C` [Compound C58] (cyclo([MeBmt][Abu][Sar][NMeA]L[NMeL]L[dA][NMeL][NMeL][NMeV])) was tested, and the “% signal” value was 3.28%, the IC50 was < 2000 nM and the “% inhibition of CsA binding to Cyclophilin A” value (from here on “% inhibition of CsA binding”) was 96.72%.

With `C/C=C/C[C@@H](C)[C@@H](O)[C@H]1C(=O)N[C@@H](CC)C(=O)N(C)CC(=O)N(C)CC(=O)N[C@@H](C(C)(C)C)C(=O)N(C)[C@@H](C)C(=O)N[C@@H](CC(C)C)C(=O)N[C@H](C)C(=O)N(C)[C@@H](CC(C)C)C(=O)N(C)[C@@H](CC(C)C)C(=O)N(C)[C@@H](C(C)C)C(=O)N1C` [Compound C73] (cyclo([MeBmt][Abu][Sar][Sar][Tle][NMeA]L[dA][NMeL][NMeL][NMeV])) the “% signal” value was 0.01%, the IC50 was < 2000 nM and the “% inhibition of CsA binding” value was 99.99%.

In the case of `C/C=C/C[C@@H](C)[C@@H](O)[C@H]1C(=O)N[C@@H](CC)C(=O)N(C)CC(=O)N(C)[C@@H](Cc2ccc(O)cc2)C(=O)N[C@@H](C(C)C)C(=O)N(C)[C@@H](CC(C)C)C(=O)N[C@@H](CC(C)C)C(=O)N[C@H](C)C(=O)N(C)[C@@H](CC(C)C)C(=O)N(C)[C@@H](CC(C)C)C(=O)N(C)[C@@H](C(C)C)C(=O)N1C` [Compound C52] (cyclo([MeBmt][Abu][Sar][NMeY]V[NMeL]L[dA][NMeL][NMeL][NMeV])), the “% signal” value is reported as 7.40%, the IC50 is reported as < 2000 nM and the “% inhibition of CsA binding” value is reported as 92.60%.

For `C/C=C/C[C@@H](C)[C@@H](O)[C@H]1C(=O)N[C@@H](CC)C(=O)N(C)CC(=O)N(C)CC(=O)N[C@@H](CC(C)C)C(=O)N(C)[C@@H](CC(C)C)C(=O)N[C@@H](CC(C)C)C(=O)N[C@H](C)C(=O)N(C)[C@@H](CC(C)C)C(=O)N(C)[C@@H](CC(C)C)C(=O)N(C)[C@@H](C(C)C)C(=O)N1C` [Compound C61] (cyclo([MeBmt][Abu][Sar][Sar]L[NMeL]L[dA][NMeL][NMeL][NMeV])), the “% signal” value was 14.38%, the IC50 was < 2000 nM and the “% inhibition of CsA binding” value was 85.62%.

With `C/C=C/C[C@@H](C)[C@@H](O)[C@H]1C(=O)N[C@@H](CC)C(=O)N(C)CC(=O)N(C)[C@@H](C(C)C)C(=O)N[C@@H](C(C)C)C(=O)N(C)[C@@H](C)C(=O)N[C@@H](CC(C)C)C(=O)N[C@H](C)C(=O)N(C)[C@@H](CC(C)C)C(=O)N(C)[C@@H](CC(C)C)C(=O)N(C)[C@@H](C(C)C)C(=O)N1C` [Compound C89] (cyclo([MeBmt][Abu][Sar][NMeV]V[NMeA]L[dA][NMeL][NMeL][NMeV])) the “% signal” value was 3.10%, the IC50 was < 2000 nM and the “% inhibition of CsA binding” value was 96.90%.

In the case of `C/C=C/C[C@@H](C)[C@@H](O)[C@H]1C(=O)N[C@@H](CC)C(=O)N(C)CC(=O)N(C)[C@@H](Cc2ccccc2)C(=O)N[C@@H](CC(C)C)C(=O)N(C)[C@@H](CC(C)C)C(=O)N[C@@H](CC(C)C)C(=O)N[C@H](C)C(=O)N(C)[C@@H](CC(C)C)C(=O)N(C)[C@@H](CC(C)C)C(=O)N(C)[C@@H](C(C)C)C(=O)N1C` [Compound C60] (cyclo([MeBmt][Abu][Sar][NMeF]L[NMeL]L[dA][NMeL][NMeL][NMeV])), the “% signal” value is reported as 52.68%, the IC50 is reported as < 2000 nM and the “% inhibition of CsA binding” value is reported as 47.32%.

In the case of `C/C=C/C[C@@H](C)[C@@H](O)[C@H]1C(=O)N[C@@H](CC)C(=O)N(C)CC(=O)N(C)[C@@H]([C@@H](C)CC)C(=O)N[C@@H](C(C)C)C(=O)N(C)[C@@H](C)C(=O)N[C@@H](C)C(=O)N[C@H](C)C(=O)N(C)[C@@H](CC(C)C)C(=O)N(C)[C@@H](CC(C)C)C(=O)N(C)[C@@H](C(C)C)C(=O)N1C` [Compound C1] (cyclo([MeBmt][Abu][Sar][NMeI]V[NMeA]A[dA][NMeL][NMeL][NMeV])), the “% signal” value is reported as 0.56%, the IC50 is reported as < 2000 nM and the “% inhibition of CsA binding” value is reported as 99.44%.

In the case of `C/C=C/C[C@@H](C)[C@@H](O)[C@H]1C(=O)N[C@@H](CC)C(=O)N(C)CC(=O)N(C)[C@@H]([C@@H](C)CC)C(=O)N[C@@H](C(C)C)C(=O)N(C)[C@@H](CC(C)C)C(=O)N[C@@H](CC(C)C)C(=O)N[C@H](C)C(=O)N(C)[C@@H](CC(C)C)C(=O)N(C)[C@@H](CC(C)C)C(=O)N(C)[C@@H](C(C)C)C(=O)N1C` [Compound C45] (cyclo([MeBmt][Abu][Sar][NMeI]V[NMeL]L[dA][NMeL][NMeL][NMeV])), the “% signal” value is reported as −0.03%, the IC50 is reported as < 2000 nM and the “% inhibition of CsA binding” value is reported as 100.03%.

In the case of `C/C=C/C[C@@H](C)[C@@H](O)[C@H]1C(=O)N[C@@H](CC)C(=O)N(C)CC(=O)N(C)[C@@H]([C@@H](C)O)C(=O)N[C@@H](C)C(=O)N(C)CC(=O)N[C@@H](C)C(=O)N[C@H](C)C(=O)N(C)[C@@H](CC(C)C)C(=O)N(C)[C@@H](CC(C)C)C(=O)N(C)[C@@H](C(C)C)C(=O)N1C` [Compound C23] (cyclo([MeBmt][Abu][Sar][NMeT]A[Sar]A[dA][NMeL][NMeL][NMeV])), the “% signal” value is reported as 1.28%, the IC50 is reported as < 2000 nM and the “% inhibition of CsA binding” value is reported as 98.72%.

For `C/C=C/C[C@@H](C)[C@@H](O)[C@H]1C(=O)N[C@@H](CC)C(=O)N(C)CC(=O)N(C)CC(=O)N[C@@H](C(C)C)C(=O)N(C)CC(=O)N[C@@H](C)C(=O)N[C@H](C)C(=O)N(C)[C@@H](CC(C)C)C(=O)N(C)[C@@H](CC(C)C)C(=O)N(C)[C@@H](C(C)C)C(=O)N1C` [Compound C28] (cyclo([MeBmt][Abu][Sar][Sar]V[Sar]A[dA][NMeL][NMeL][NMeV])), the “% signal” value was 1.06%, the IC50 was < 2000 nM and the “% inhibition of CsA binding” value was 98.94%.

With `C/C=C/C[C@@H](C)[C@@H](O)[C@H]1C(=O)N[C@@H](CC)C(=O)N(C)CC(=O)N(C)CC(=O)N[C@@H](C(C)C)C(=O)N(C)[C@@H](C)C(=O)N[C@@H](CC(C)C)C(=O)N[C@H](C)C(=O)N(C)[C@@H](CC(C)C)C(=O)N(C)[C@@H](CC(C)C)C(=O)N(C)[C@@H](C(C)C)C(=O)N1C` [Compound C85] (cyclo([MeBmt][Abu][Sar][Sar]V[NMeA]L[dA][NMeL][NMeL][NMeV])) the “% signal” value was 0.87%, the IC50 was < 2000 nM and the “% inhibition of CsA binding” value was 99.13%.

`C/C=C/C[C@@H](C)[C@@H](O)[C@H]1C(=O)N[C@@H](CC)C(=O)N(C)CC(=O)N(C)[C@@H](Cc2ccc(O)cc2)C(=O)N[C@@H](C(C)C)C(=O)N(C)[C@@H](CC(C)C)C(=O)N[C@@H](CC)C(=O)N[C@H](C)C(=O)N(C)[C@@H](CC(C)C)C(=O)N(C)[C@@H](CC(C)C)C(=O)N(C)[C@@H](C(C)C)C(=O)N1C` [Compound C100] (cyclo([Abu][Sar][NMeY]V[NMeL][Abu][dA][NMeL][NMeL][NMeV][MeBmt])) was tested, and the “% signal” value was 4.28% and the IC50 was < 2000 nM.

In the case of `C/C=C/C[C@@H](C)[C@@H](O)[C@H]1C(=O)N[C@@H](CC)C(=O)N(C)CC(=O)N(C)[C@@H](Cc2ccc(O)cc2)C(=O)N[C@@H](C(C)(C)C)C(=O)N(C)[C@@H](C)C(=O)N[C@@H](CC(C)C)C(=O)N[C@H](C)C(=O)N(C)[C@@H](CC(C)C)C(=O)N(C)[C@@H](CC(C)C)C(=O)N(C)[C@@H](C(C)C)C(=O)N1C` [Compound C76] (cyclo([MeBmt][Abu][Sar][NMeY][Tle][NMeA]L[dA][NMeL][NMeL][NMeV])), the “% signal” value is reported as 5.09%, the IC50 is reported as < 2000 nM and the “% inhibition of CsA binding” value is reported as 94.91%.

For `C/C=C/C[C@@H](C)[C@@H](O)[C@H]1C(=O)N[C@@H](CC)C(=O)N(C)CC(=O)N(C)[C@@H](CC(C)C)C(=O)N[C@@H](C(C)C)C(=O)N(C)[C@@H](CC(C)C)C(=O)N[C@@H](CC(C)C)C(=O)N[C@H](C)C(=O)N(C)[C@@H](CC(C)C)C(=O)N(C)[C@@H](CC(C)C)C(=O)N(C)[C@@H](C(C)C)C(=O)N1C` [Compound C50], the “% signal” value was 6.06%, the IC50 was < 2000 nM and the “% inhibition of CsA binding” value was 93.94%.

With `C/C=C/C[C@@H](C)[C@@H](O)[C@H]1C(=O)N[C@@H](CC)C(=O)N(C)CC(=O)N(C)[C@@H](CC(C)C)C(=O)N[C@@H](CC(C)C)C(=O)N(C)[C@@H](C)C(=O)N[C@@H](C)C(=O)N[C@H](C)C(=O)N(C)[C@@H](CC(C)C)C(=O)N(C)[C@@H](CC(C)C)C(=O)N(C)[C@@H](C(C)C)C(=O)N1C` [Compound C14] (cyclo([MeBmt][Abu][Sar][NMeL]L[NMeA]A[dA][NMeL][NMeL][NMeV])) the “% signal” value was 9.36% and the IC50 was < 2000 nM.

In the case of `C/C=C/C[C@@H](C)[C@@H](O)[C@H]1C(=O)N[C@@H](CC)C(=O)N(C)CC(=O)N(C)[C@@H](CCCC)C(=O)N[C@@H](C(C)(C)C)C(=O)N(C)[C@@H](C)C(=O)N[C@@H](CC(C)C)C(=O)N[C@H](C)C(=O)N(C)[C@@H](CC(C)C)C(=O)N(C)[C@@H](CC(C)C)C(=O)N(C)[C@@H](C(C)C)C(=O)N1C` [Compound C80] (cyclo([MeBmt][Abu][Sar][NMeNle][Tle][NMeA]L[dA][NMeL][NMeL][NMeV])), the “% signal” value is reported as 3.35%, the IC50 is reported as < 2000 nM and the “% inhibition of CsA binding” value is reported as 96.65%.

With `C/C=C/C[C@@H](C)[C@@H](O)[C@H]1C(=O)N[C@@H](CC)C(=O)N(C)CC(=O)N(C)[C@@H]([C@@H](C)O)C(=O)N[C@@H](CC(C)C)C(=O)N(C)[C@@H](CC(C)C)C(=O)N[C@@H](CC(C)C)C(=O)N[C@H](C)C(=O)N(C)[C@@H](CC(C)C)C(=O)N(C)[C@@H](CC(C)C)C(=O)N(C)[C@@H](C(C)C)C(=O)N1C` [Compound C63] (cyclo([MeBmt][Abu][Sar][NMeT]L[NMeL]L[dA][NMeL][NMeL][NMeV])) the “% signal” value was 4.64%, the IC50 was < 2000 nM and the “% inhibition of CsA binding” value was 95.36%.
